Each structure is given as a SMILES string. Structures can show the parent of a compound that is named as a salt. Active and inactive are the calls of the source. The calls are words filed in the database; no cut-off is given here.

The target in assay [1] is T1, Caspase-7 (Homo sapiens) (UniProt P55210).
T1 sequence (whole entry): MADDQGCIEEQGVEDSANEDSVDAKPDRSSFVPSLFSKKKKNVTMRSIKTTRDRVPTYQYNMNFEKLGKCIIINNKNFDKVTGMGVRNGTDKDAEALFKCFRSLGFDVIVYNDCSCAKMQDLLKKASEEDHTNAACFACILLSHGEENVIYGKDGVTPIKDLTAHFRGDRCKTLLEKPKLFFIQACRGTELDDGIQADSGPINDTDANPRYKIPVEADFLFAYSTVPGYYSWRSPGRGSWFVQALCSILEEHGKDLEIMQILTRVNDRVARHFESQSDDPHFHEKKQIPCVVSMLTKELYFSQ
Put plainly: Activation of caspase 7 activity in IGROV1 cells assessed as DEVD peptide hydrolysis at 5 uM after 24 hrs. As to conditions: IGROV-1. It is filed as cell-based.

Assay [2] concerns the target T2, Caspase-3 (Homo sapiens) (UniProt P42574).
T2 sequence (whole entry): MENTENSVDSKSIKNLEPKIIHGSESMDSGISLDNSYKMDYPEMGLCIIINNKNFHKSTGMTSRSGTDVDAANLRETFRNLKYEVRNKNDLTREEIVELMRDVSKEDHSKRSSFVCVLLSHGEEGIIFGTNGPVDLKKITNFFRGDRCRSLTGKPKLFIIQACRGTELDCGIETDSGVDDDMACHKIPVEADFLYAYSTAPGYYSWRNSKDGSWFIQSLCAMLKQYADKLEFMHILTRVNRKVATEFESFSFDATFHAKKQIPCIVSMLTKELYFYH
As to the kind of experiment: Activation of caspase 3 activity in IGROV1 cells assessed as DEVD peptide hydrolysis at 5 uM after 24 hrs. As to conditions: IGROV-1. It is filed as cell-based.

Assay [3] in a line: Antitumor activity against ovarian tumor cells. It counts as functional. As to conditions: Homo sapiens; for TGI: read-out: pTGI (converted).
A short description of assay [4]: Antitumor activity against renal tumor cells. It counts as functional. To be noted: Homo sapiens; for TGI: read-out: pTGI (converted).
Assay [5] can be described thus: Antitumor activity against prostate tumor cells. To be noted: Homo sapiens; for CC50: read-out: Log LC50 (the source's name) (converted); for TGI: read-out: pTGI (converted). It is filed as functional.
Assay [6] in a line: Antitumor activity against breast tumor cells. It counts as functional. To be noted: Homo sapiens; for TGI: read-out: pTGI (converted).
Assay [7] relates to NSCLC. As to the kind of experiment: Antitumor activity against NSCLC cells. It counts as functional. To be noted: Homo sapiens; for TGI: read-out: pTGI (converted).
Assay [8] in a line: Antitumor activity against leukemia cells. It counts as functional. To be noted: Homo sapiens, Leukemia cell; for TGI: read-out: pTGI (converted).
Assay [9] in a line: Antitumor activity against CNS tumor cells. It counts as functional. As to conditions: Homo sapiens; for TGI: read-out: pTGI (converted).
Assay [10] in a line: Antitumor activity against colon tumor cells. It counts as functional. As to conditions: Homo sapiens; for TGI: read-out: pTGI (converted).
The nature of assay [11]: Antitumor activity against melanoma cells. It counts as functional. As to conditions: Homo sapiens, Melanoma cell; for CC50: read-out: Log LC50 (the source's name) (converted); for TGI: read-out: pTGI (converted).

As to `COc1cc2c(/C=C3/C(=O)Nc4cccc(Cl)c43)c(Cl)n(C)c2cc1C`, the result in assay [1] and in [2] was Active.

In the case of `COc1cc2c(/C=C3/C(=O)Nc4ccc(O)cc43)c(Cl)n(C)c2cc1C`, the outcome in [1] and in [2] was Active.

In the case of `COc1cc2c(/C=C3/C(=O)Nc4ccc(Cl)cc43)c(Cl)n(C)c2cc1C`, the result in assay [1] and in assay [2] was Active.

For `COc1cc2c(/C=C3/C(=O)Nc4ccc(F)cc43)c(Cl)[nH]c2cc1C`, the result in assay [1] and in assay [2] was Active.

As to `COc1cc2c(/C=C3/C(=O)Nc4cc(C)c(O)cc43)c(Cl)n(C)c2cc1C`, the result in [1] and in assay [2] was Active.

Regarding `CC[C@]1(O)C[C@H]2CN(CCc3c([nH]c4ccccc34)[C@@](C(=O)OC)(c3cc4c(cc3OC)N(C=O)[C@H]3[C@@](O)(C(=O)OC)[C@H](OC(C)=O)[C@]5(CC)C=CCN6CC[C@]43[C@@H]65)C2)C1` [VINCRISTINE SULFATE], the GI50 (as a rule, the concentration that inhibits growth by half) was 316 nM in [3]; 316 nM in assay [4]; 126 nM in [5]; 316 nM in [6]; 251 nM in [7]; 100 nM in assay [8]. The 50% growth inhibitory concentration (GI50) was 126 nM in assay [9], 100 nM in assay [10] and 158 nM in [11]. Further, the TGI was 20000 nM in assay [3]; 20000 nM in assay [4]; 6310 nM in [5]; 7940 nM in assay [6]; 15800 nM in assay [7]; 15800 nM in assay [8]. For the same molecule, the TGI is 6310 nM in [9], 3980 nM in assay [10] and 7940 nM in [11]. In addition, the CC50 is 316000 nM in assay [5] and 251000 nM in assay [11].

On to `COc1cc2c(/C=C3/C(=O)Nc4ccc(F)cc43)c(Cl)n(Cc3ccccc3)c2cc1C`, for which the outcome in assay [1] and in [2] was Active.

For the molecule `COc1cc2c(/C=C3/C(=O)Nc4ccccc43)c(Cl)n(C)c2cc1C`, the result in [1] and in [2] was Active.

For `COc1cc2c(/C=C3/C(=O)Nc4ccc(F)cc43)c(Cl)n(C)c2cc1C`, the result in [1] and in [2] was Active.

On to `COc1cc2c(/C=C3/C(=O)Nc4cccc(Cl)c43)c(Cl)n(Cc3ccc(Cl)cc3)c2cc1C`, for which the outcome in assay [1] and in assay [2] was Active.

Turning to `COc1cc2c(/C=C3/C(=O)Nc4c3ccc3ccccc43)c(Cl)[nH]c2cc1C`, the GI50 was 12 nM in [3]; 89.1 nM in assay [4]; 17 nM in [5]; 39.8 nM in assay [6]; 102 nM in assay [7]; 10.2 nM in assay [8]. The GI50 is 13.5 nM in assay [9], 17 nM in assay [10] and 10 nM in [11]. Further, the LC50 (usually the concentration lethal to half of the exposed cells or organisms) in assay [3] is 47900 nM; in [4] it was 50100 nM; in assay [6], 50100 nM; in [7] it was 49000 nM; in [9], 50100 nM; in assay [10] it was 50100 nM. Besides, the TGI in assay [3] is 708 nM; in assay [4] it was 30900 nM; in assay [5] it was 50100 nM; in [6], 2040 nM; in assay [7] it was 4270 nM; in assay [8], 537 nM. Besides, the TGI in assay [9] is 794 nM; in assay [10], 3720 nM; in assay [11], 3550 nM. Also, the CC50 in [5] was 50100 nM; in assay [11], 40700 nM. Besides, the outcome in assay [1] and in [2] was Active.

For the molecule `COc1cc2c(/C=C3/C(=O)Nc4c3ccc3ccccc43)c(Cl)n(C)c2cc1C`, the 50% growth inhibitory concentration (GI50) in assay [3] was 35.5 nM; in assay [4], 72.4 nM; in assay [5], 562 nM; in assay [6], 46.8 nM; in assay [7], 30.9 nM; in assay [8], 17.4 nM. In addition, the GI50 in assay [9] was 115 nM; in [10], 77.6 nM; in assay [11], 53.7 nM. Moreover, the median lethal concentration (LC50) in assay [3] is 22900 nM; in assay [4] it was 22400 nM; in [6], 13800 nM; in [7], 50100 nM; in assay [9] it was 30900 nM; in assay [10], 5130 nM. Besides, the TGI in assay [3] is 562 nM; in assay [4] it was 2630 nM; in [5] it was 2450 nM; in assay [6] it was 3020 nM; in [7], 4790 nM; in assay [8], 501 nM. The TGI in [9] was 1620 nM; in assay [10] it was 129 nM; in [11], 6610 nM. In addition, the CC50 in assay [5] was 25700 nM; in [11] it was 36300 nM. Moreover, the result in assay [1] and in assay [2] was Active.

As for `COc1cc2c(/C=C3/C(=O)Nc4ccc(Cl)cc43)c(Cl)n(Cc3ccc(Cl)cc3)c2cc1C`, the outcome in assay [1] and in [2] was Active.

As to `COc1cc2c(/C=C3/C(=O)Nc4ccc(O)cc43)c(Cl)n(Cc3ccc(Cl)cc3)c2cc1C`, the result in assay [1] and in assay [2] was Active.

Regarding `COc1cc2c(/C=C3/C(=O)Nc4cc(C)c(O)cc43)c(Cl)n(Cc3ccc(Cl)cc3)c2cc1C`, the result in [1] and in assay [2] was Active.

These data come from ChEMBL document CHEMBL1145408, “Substituted E-3-(2-chloro-3-indolylmethylene)1,3-dihydroindol-2-ones with antitumor activity. Effect on the cell cycle and apoptosis” (2007).
